Test results taken from patent US11534504B2, “Compositions and methods for stabilizing coelenterazine and analogs and derivatives thereof” (Promega Corporation, priority 2018, dated 2022).

Tests used:
[1] = Analytical HPLC of Pluronic F-127 formulated substrates reconstituted in water (Examples 34-36); type: physicochemical
Procedure: 2.5 mgs of Pluronic® F-127 (Sigma Aldrich) were massed out into […] snap-top Eppendorf tubes. The polymer was heated to 70° C. in a water bath until melted, becoming a clear solution. […] 5 μL of this stock was added to the melted polymer and pipetted to mix. […] Condition 2—After addition of substrate, the substrate/polymer solution was further diluted with 45 μL of water, frozen, and lyophilized overnight.
Samples from both conditions 1 and 2 were reconstituted in water, diluted to 100 μM, and analyzed for chemical integrity via analytical HPLC (FIG. 54).
This formulation was also prepared for the coelenterazine analog, furimazine. 2.5 mgs of Pluronic® F-127(Sigma Aldrich) were massed out into 1.5 mL, snap-top Eppendorf tubes. The polymer was heated to 70° C. in a water bath until melted. A 10 mM stock solution of furimazine was prepared in EtOH. 5 μL of this stock was then added to the melted polymer and pipetted to mix. […] Condition 2—After addition of substrate, the substrate/polymer solution was further diluted with 45 μL of water, frozen, and then lyophilized overnight.
25 mgs of Pluronic® F-127 were massed out into a 1.5 mL, snap-top Eppendorf tube. The polymer was heated to 70° C. in a water bath until melted. […] An additional 50 μL of EtOH was used to wash and aid transfer of the substrate into the polymer solution. The solvent was removed under reduced pressure without heat.
After lyophilization, each sample was reconstituted with either 500 μL, 400 μL, 250 μL, or 100 μL water, respectively.

[2] = Absorbance of reconstituted furimazine compositions (Example 2); type: physicochemical
Procedure: Bulk solid furimazine was diluted in ethanol to a final concentration of 10 mM (solution 1). […] After mixing, vials containing solutions 3a-e were placed in dry ice to freeze for 1 hour. These frozen stocks where then lyophilized overnight for form dry pullulan matrices containing furimazine. […] Absorbance spectra of the formulated dry furimazine (50 nmols) with increasing amounts of pullulan after reconstitution in the PBS buffer are shown in FIG. 4A. Formulated furimazine with pullulan led to an increase in furimazine absorbance in aqueous solution. Concentration of furimazine was determined by Beer's law using the extinction coefficient of furimazine in methanol (21000 M^−1cm^−1) with absorbance measured at 254 nm. […] Absorbance of the formulated furimazine (95 μg) with increasing amounts of pullulan after reconstitution in the PBS buffer are shown in FIG. 4B. The solid furimazine formulated with increasing concentrations of pullulan matrix led to an increased in absorbance, and thus furimazine concentration in PBS buffer, compared to the conditions that contained only furimazine without pullulan.

[3] = molecular target: T1, cell culture expressing NanoLuc® enzyme (Oplophorus gracilirostris, UniProt Q9GV45, A31E/A60N/A81I/F95D/I117V/K70R/L54V/L99Q/M102K/N193R/P142E/Q151K/Q38R/Q45L/V71I/Y165I); assay: Luminescence intensity of Nano-Glo substrate formulations with cell culture expressing NanoLuc (Examples 30-33); type: cell-based; conditions: Example 32; 100 mM HP-β-CD
T1 construct: expressed in transfected cells
T1 sequence (Q9GV45 28-196 with tags or gaps with the stated changes limits assumed): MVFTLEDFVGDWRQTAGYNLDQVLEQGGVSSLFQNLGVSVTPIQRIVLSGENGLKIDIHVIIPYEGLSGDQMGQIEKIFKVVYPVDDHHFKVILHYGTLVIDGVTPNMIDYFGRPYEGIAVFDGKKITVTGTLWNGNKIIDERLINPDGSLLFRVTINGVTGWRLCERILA
Procedure: One volume of Nano-Glo® Luciferase Assay Substrate (Promega Cat. #N113) was combined with 50 volumes of Nano-Glo® Luciferase Assay Buffer (Promega Cat. #N112) containing sodium ascorbate at concentrations ranging from 0 to 300 mM. The solutions were incubated at 37° C. prior to assay at several time points. Nano-Glo® Luciferase Assay Substrate used according to manufacturer's instructions (stored at −20° C. during the course of the experiment and reconstituted for each time point) was used as a positive control. A cell culture expressing NanoLuc® enzyme was used as a sample for each time point. One volume of reconstituted Nano-Glo® Luciferase Assay Buffer was mixed with one volume of sample. After 3 minutes, the luminescence intensity was measured with a Bio-Tek Synergy® H1 96-well plate reader. For each sample, the luminescence intensity was background subtracted and normalized to the −20° C. control signal.
A 4× furimazine solution was prepared by diluting the stock 1:25 in a buffer containing 200 mM MES pH 6.0, 200 mM hydroxypropyl-β-cyclodextrin (HP-β-CD), and 600 mM sodium ascorbate. The solution was lyophilized for 48 hours using a Virtis Advantage Pro® Lyophilizer. […] After 3 min, the luminescence intensity was measured with a Bio-Tek Synergy H1 96-well plate reader. […] For each sample, the luminescence intensity was background subtracted and normalized to the −20° C. control signal. […]

O=c1c(Cc2ccco2)nc2c(Cc3ccccc3)[nH]c(-c3cccc(O)c3)cn1-2 [JRW-0238, 8-benzyl-2-(furan-2-ylmethyl)-6-(3-hydroxyphenyl)imidazo[1,2-a]pyrazin-3(7H)-one]
Area Percent, peak at retention time 6.969-6.985 min ([1]; Example 34): 1.571%

O=c1c(Cc2ccco2)nc2c(Cc3ccccc3)[nH]c(-c3ccccc3)cn1-2 [furimazine, 8-benzyl-2-(furan-2-ylmethyl)-6-phenylimidazo[1,2-a]pyrazin-3(7H)-one]
absorbance at 254 nm ([2]; 19.08 μg furimazine in 0.5 mL PBS pH 6.8, 30 minutes at room temperature): 0.0571
calculated concentration of furimazine in solution ([2]; Beer's law from absorbance at 254 nm, 19.08 μg in 0.5 mL PBS pH 6.8): 0.0082 mM
Area Percent, peak at retention time 6.104-6.109 min ([1]; Example 35): 0.705%
Area Percent, peak at retention time 6.541-6.548 min ([1]; Example 35): 1.407%
Area Percent, peak at retention time 7.949-7.957 min ([1]; Example 35): 1.030%
Area Percent, peak at retention time 5.028-5.038 min (main peak) ([1]; Example 35, furimazine, 100 μM): 96.858%

hydroxypropyl-β-cyclodextrin [HP-β-CD]
signal enhancement compared to Nano-Glo buffer alone [3]: 15 to 20%
